Measurements published in BindingDB's records for doi:10.1074/jbc.M803947200 (Universit&Eacute, 2008).

Each compound was assayed against Stromal cell-derived factor 1 (Homo sapiens, UniProt P48061) (assay: Tryptophan Fluorescence Assay). Details: 20 °C.
From the text: Binding of chalcone 4 and chlcone 1 to CSCL12 was examined by monitoring changes in the emission intensity of intrinsic Trp fluorescence of the chemokine.

Chain of Stromal cell-derived factor 1 (P48061 whole entry): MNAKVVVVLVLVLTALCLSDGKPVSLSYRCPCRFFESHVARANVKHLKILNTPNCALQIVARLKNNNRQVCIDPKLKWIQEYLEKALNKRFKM

| Compound | IC50 [µM] |
| --- | --- |
| COc1cc(/C=C/C(=O)c2ccc(Cl)cc2)ccc1O [1-(4-Chloro-phenyl)-3-(4-hydroxy-3-methoxy-phenyl)-propenone] | 150 |
| O=C(/C=C/c1ccc(O)cc1)c1ccccc1O [(E)-1-(2-hydroxyphenyl)-3-(4-hydroxyphenyl)prop-2-en-1-one] | 24.2 |
| O=C(/C=C/c1ccc(O)cc1)c1ccccc1 [Chalcone 2] | 15 |
| O=C(/C=C/c1ccccc1)c1ccccc1 [Chalcone, 13] | > 500 |
